Results taken from PubChem BioAssay AID2060513 (Molecular Pharmacology Branch, DTP, NCI, 2025).

Test system: 299254-011-R-J1-PDC complex spheroids viability
Assay: Anticancer human tumor 299254-011-R-J1-PDC patient-derived melanoma cell line growth inhibition [GQUAD]
Conditions: for IC50: curve of first compound; for viability, T/C: stronger effect = lower value
Summary of the method: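 Tumor cells were grown as complex spheroids with HUVEC endothelial cells and mesenchymal stem cells as stroma. G-quadruplex stabilizers were combined with targeted agents over half-log dilutions from near the clinical Cmax, or from 10 microM.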

[1] = second compound 0.0316 µM, first compound 0.0316 µM
[2] = second compound 0.0316 µM, first compound 0.316 µM
[3] = second compound 0.1 µM, first compound 0.0316 µM
[4] = second compound 0.1 µM, first compound 0.316 µM
[5] = second compound 0.316 µM, first compound 0.0316 µM
[6] = second compound 0.316 µM, first compound 0.316 µM
[7] = second compound 1 µM, first compound 0.0316 µM
[8] = second compound 1 µM, first compound 0.316 µM
[9] = second compound 3.16 µM, first compound 0.0316 µM
[10] = second compound 3.16 µM, first compound 0.316 µM
[11] = second compound 10 µM, first compound 0.0316 µM
[12] = second compound 10 µM, first compound 0.316 µM
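Further: spheroids exposed to the agents for seven days before readout.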
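Wherever viability, T/C is given: percent viability relative to DMSO vehicle control wells = 100%.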

## Cc1cccc(N(C)C(=O)C2C(O)CCN2c2nc(C)cc(C(F)(F)F)c2C#N)c1 (centres undefined) + Cc1cnc(CNC(=O)c2c(=O)c3ccc(N4CCCN(C)CC4)nc3n3c2sc2ccccc23)cn1
Second compound 0.0316 µM
  IC50: > 10 µM
Second compound 0.1 µM
  IC50: > 10 µM
Second compound 0.316 µM
  IC50: > 10 µM
Second compound 1 µM
  IC50: > 10 µM
Second compound 3.16 µM
  IC50: > 10 µM
Second compound 10 µM
  IC50: > 10 µM
[1]
  viability, T/C: 120%
Second compound 0.0316 µM, first compound 0.1 µM
  viability, T/C: 115%
[2]
  viability, T/C: 117%
Second compound 0.0316 µM, first compound 1 µM
  viability, T/C: 89.3%
Second compound 0.0316 µM, first compound 3.16 µM
  viability, T/C: 87.6%
Second compound 0.0316 µM, first compound 10 µM
  viability, T/C: 112%
[3]
  viability, T/C: 88.9%
Second compound 0.1 µM, first compound 0.1 µM
  viability, T/C: 112%
[4]
  viability, T/C: 95.6%
Second compound 0.1 µM, first compound 1 µM
  viability, T/C: 92.9%
Second compound 0.1 µM, first compound 3.16 µM
  viability, T/C: 120%
Second compound 0.1 µM, first compound 10 µM
  viability, T/C: 100%
[5]
  viability, T/C: 94.3%
Second compound 0.316 µM, first compound 0.1 µM
  viability, T/C: 96.5%
[6]
  viability, T/C: 93.2%
Second compound 0.316 µM, first compound 1 µM
  viability, T/C: 93.8%
Second compound 0.316 µM, first compound 3.16 µM
  viability, T/C: 107%
Second compound 0.316 µM, first compound 10 µM
  viability, T/C: 114%
[7]
  viability, T/C: 91.8%
Second compound 1 µM, first compound 0.1 µM
  viability, T/C: 94%
[8]
  viability, T/C: 103%
Second compound 1 µM, first compound 1 µM
  viability, T/C: 85.9%
Second compound 1 µM, first compound 3.16 µM
  viability, T/C: 92.1%
Second compound 1 µM, first compound 10 µM
  viability, T/C: 83.5%
[9]
  viability, T/C: 71.9%
Second compound 3.16 µM, first compound 0.1 µM
  viability, T/C: 75.2%
[10]
  viability, T/C: 95.3%
Second compound 3.16 µM, first compound 1 µM
  viability, T/C: 85.8%
Second compound 3.16 µM, first compound 3.16 µM
  viability, T/C: 86.5%
Second compound 3.16 µM, first compound 10 µM
  viability, T/C: 85.5%
[11]
  viability, T/C: 82%
Second compound 10 µM, first compound 0.1 µM
  viability, T/C: 71.9%
[12]
  viability, T/C: 64.8%
Second compound 10 µM, first compound 1 µM
  viability, T/C: 84.4%
Second compound 10 µM, first compound 3.16 µM
  viability, T/C: 63.5%
Second compound 10 µM, first compound 10 µM
  viability, T/C: 52%

## Cn1ncnc1[C@H]1c2n[nH]c(=O)c3cc(F)cc(c23)N[C@@H]1c1ccc(F)cc1 + Cc1cnc(CNC(=O)c2c(=O)c3ccc(N4CCCN(C)CC4)nc3n3c2sc2ccccc23)cn1
Second compound 0.0316 µM
  IC50: > 0.316 µM
Second compound 0.1 µM
  IC50: > 0.316 µM
Second compound 0.316 µM
  IC50: > 0.316 µM
Second compound 1 µM
  IC50: > 0.316 µM
Second compound 3.16 µM
  IC50: > 0.316 µM
Second compound 10 µM
  IC50: > 0.316 µM
Second compound 0.0316 µM, first compound 0.000999 µM
  viability, T/C: 94.1%
Second compound 0.0316 µM, first compound 0.00316 µM
  viability, T/C: 116%
Second compound 0.0316 µM, first compound 0.00999 µM
  viability, T/C: 125%
[1]
  viability, T/C: 87.5%
Second compound 0.0316 µM, first compound 0.0999 µM
  viability, T/C: 108%
[2]
  viability, T/C: 105%
Second compound 0.1 µM, first compound 0.000999 µM
  viability, T/C: 97.2%
Second compound 0.1 µM, first compound 0.00316 µM
  viability, T/C: 96.2%
Second compound 0.1 µM, first compound 0.00999 µM
  viability, T/C: 91.4%
[3]
  viability, T/C: 122%
Second compound 0.1 µM, first compound 0.0999 µM
  viability, T/C: 121%
[4]
  viability, T/C: 90.3%
Second compound 0.316 µM, first compound 0.000999 µM
  viability, T/C: 93.4%
Second compound 0.316 µM, first compound 0.00316 µM
  viability, T/C: 91.2%
Second compound 0.316 µM, first compound 0.00999 µM
  viability, T/C: 88.3%
[5]
  viability, T/C: 99.1%
Second compound 0.316 µM, first compound 0.0999 µM
  viability, T/C: 111%
[6]
  viability, T/C: 105%
Second compound 1 µM, first compound 0.000999 µM
  viability, T/C: 90.9%
Second compound 1 µM, first compound 0.00316 µM
  viability, T/C: 96.9%
Second compound 1 µM, first compound 0.00999 µM
  viability, T/C: 84.2%
[7]
  viability, T/C: 104%
Second compound 1 µM, first compound 0.0999 µM
  viability, T/C: 83.2%
[8]
  viability, T/C: 94.1%
Second compound 3.16 µM, first compound 0.000999 µM
  viability, T/C: 85.3%
Second compound 3.16 µM, first compound 0.00316 µM
  viability, T/C: 82.3%
Second compound 3.16 µM, first compound 0.00999 µM
  viability, T/C: 68.8%
[9]
  viability, T/C: 91.2%
Second compound 3.16 µM, first compound 0.0999 µM
  viability, T/C: 74.2%
[10]
  viability, T/C: 92.1%
Second compound 10 µM, first compound 0.000999 µM
  viability, T/C: 71.7%
Second compound 10 µM, first compound 0.00316 µM
  viability, T/C: 60.6%
Second compound 10 µM, first compound 0.00999 µM
  viability, T/C: 105%
[11]
  viability, T/C: 61.1%
Second compound 10 µM, first compound 0.0999 µM
  viability, T/C: 87.4%
[12]
  viability, T/C: 61.8%
